What was measured:
DENV2-infected mice = assay: Platelet aggregation in peripheral blood smears of DENV2-infected WT mice; assay type: in vivo; settings: 10^6 pfu DENV2 IP, ketanserin 8 mg/kg IP 1 hour after infection, blood 24 hours post-infection, vs vehicle 1% DMSO
Description: Images depict peripheral blood smears from DENV2-infected mice. Mice were infected via intraperitoneal route (IP) with 10^6 pfu. (A) Mock infected mice. (B) DENV-infected mice treated with vehicle control IP. (C) DENV-infected mice given ketanserin 8 mg/kg IP. Blood was taken via cheek bleed 24 hours post-infection, smeared onto glass slides, stained with eosin and methylene blue and viewed under light microscopy using a 100× magnification lens. Dengue induces platelet aggregation, while administration of ketanserin prevents this. A few individual platelets are indicated by arrows; platelet aggregates are circled by dashed lines. Scale bar=10 μm.
To test whether ketanserin could block platelet aggregation and/or prevent thrombocytopenia, a mouse model of dengue infection was used. WT mice were infected via intraperitoneal route (IP) with 10^6 pfu of DENV2 and, after 1 hour, treated with vehicle (1% DMSO) or ketanserin (8 mg/kg) IP. Blood was taken via cheek bleed 24 hours post-infection, smeared onto glass slides, stained with eosin and methylene blue and viewed under light microscopy using a 100× magnification lens. […] Selected red blood cells (RBC), platelets (arrows) and platelet aggregates (dashed lines) are labeled.

DENV2 = assay: DENV viral load by qRT-PCR in IFNR-KO mice; assay type: in vivo; settings: DENV2 2×10^5 pfu i.p., ketanserin 8 mg/kg daily, 72 h post-infection
Description: (A) WT mice were treated with vehicle or ketanserin (8 mg/kg) prior to subcutaneous footpad injection with 2×10^5 pfu of DENV or PBS. At 72 h post-infection, popliteal lymph nodes were isolated for viral quantification by qRT-PCR. […] (B-C) WT mice were infected with DENV2 (1×10^6 pfu, i.p.) and treated daily with either 8 mg/kg of ketanserin or vehicle. […] (C) At 1 day post-infection, the spleen was harvested and DENV2 was quantified by qRT-PCR.
Since a concern with inhibition of host factors would be the effect on viral replication, the levels of viremia following DENV infection were measured. WT mice were treated with either ketanserin or vehicle prior to a subcutaneous footpad injection. The draining lymph nodes were then harvested to determine if targeting 5HT2A receptors had any influence on viral load. […] Subsequently it was determined whether targeting serotonin would have an effect on viral load in systemic infection. WT mice were treated with either ketanserin or vehicle following DENV systemic infection via intraperitoneal injection. Serum was isolated at days 1 and 3 post-infection and viremia quantified. […] The second model of severe DENV infection, the IFN-α,β, γ-R^−/− (IFNR-KO) mice, were subsequently infected and treated with either ketanserin or vehicle. These mice are known to have higher levels of viremia than WT mice.

[1] = test system: DENV2-infected IFNαβγ-KO mice; assay: Platelet counts in DENV2-infected mice deficient in interferon signalling; assay type: in vivo; settings: 10^6 pfu DENV2 IP, ketanserin 8 mg/kg IP once daily, 24 and 72 hours post-infection, n=5
Description: Platelet counts of DENV2 infected mice. Mice deficient in interferon signalling (IFNαβγ-KO) were infected via intraperitoneal route (IP) with 10^6 plaque forming units (pfu) and were given either vehicle (1% DMSO) or ketanserin 8 mg/kg […]. Blood was taken via cheek bleed 24 and 72 hours post-infection and platelet counts were measured using an automated hematology analyzer. DENV2 infection induced thrombocytopenia, but ketanserin treatment was able to prevent thrombocytopenia (n=5). Mean values are presented and error bars represent the SEM. P values were determined by Student's unpaired t test; ****P<0.0001.
These mice are commonly used in the study of DENV as their deficiency in interferon signaling results in sustained DENV replication [St John, A. L., et al., eLife 2, e00481 (2013)]. IFNαβγ-KO mice were infected via the intraperitoneal route (IP) with 10^6 plaque forming units (pfu) of DENV2 and were given either vehicle (1% DMSO) or ketanserin (8 mg/kg) IP once daily thereafter. Blood was taken via cheek bleed 24 and 72 hours post-infection and platelet counts were measured using an automated hematology analyzer.

JEV-infected mice = assay: Platelet counts in JEV-infected mice; assay type: in vivo; settings: 10^6 pfu JEV IP, ketanserin 8 mg/kg at 1 hour post-infection, 24 hours, n=5
Description: Platelet counts of JEV infected mice. Mice were infected with 10^6 pfu of JEV intraperitoneally and were vehicle- or ketanserin-treated (8 mg/kg) at 1 hour post-infection. At 24 hours, blood was collected and platelet counts were measured. The drop in platelet counts induced by JEV was prevented by ketanserin treatment (n=5). Mean values are presented and error bars represent the SEM. P values were determined by Student's unpaired t test; *p<0.05.
Japanese encephalitis virus (JEV) is a flavivirus related to dengue, so the ability of ketanserin to inhibit JEV-induced thrombocytopenia was also tested. Mice were infected with 10^6 pfu of JEV IP, and were treated at 1 hour post-infection with vehicle (1% DMSO) or ketanserin (8 mg/kg). At 24 hours, blood was collected and platelet counts were measured. The reduction in platelet counts induced by JEV was inhibited by ketanserin treatment (FIG. 14).

human platelets = assay: Platelet activation (CD41/CD62P flow cytometry) in stimulated human whole blood; assay type: cell-based; settings: ketanserin 100 nM or 500 nM, 15 min; n=4
Description: (A) Whole blood from healthy human volunteers was isolated and stimulated with DENV2, serotonin, or DENV2+serotonin for 15 min. Cells were then fixed and stained for platelet markers CD41 and CD62P and analyzed by flow cytometry. DENV raised the activation levels of platelets. […] (B) Human whole blood was stimulated with DENV2, mast cells (MCs) or DENV2+MCs in the presence of vehicle or ketanserin (100 nM or 500 nM) for 15 min prior to assessment of platelet activation. […] Mean values are presented and error bars represent the SEM. P values were determined by one-way ANOVA; *P<0.05, ** P<0.01, ***P<0.001, ****P<0.0001, ns: non-significant.
Additionally, products from DENV-stimulated human mast cells promoted platelet activation, dependent on platelet 5HT2A receptor, since this effect was abolished by ketanserin (FIG. 9B). […] Furthermore, ketanserin is effective in reversing DENV-induced human platelet activation.

O=C(c1ccc(F)cc1)C1CCN(CCn2c(=O)[nH]c3ccccc3c2=O)CC1 [ketanserin, 3-[2-[4-(4-fluorobenzoyl)piperidin-1-yl]ethyl]-1H-quinazoline-2,4-dione]
DENV-induced platelet aggregation in peripheral blood smears (DENV2-infected mice): prevented
viral load in serum (DENV2): no difference in viral load
viral load in spleen (DENV2): no difference in viral load
platelet counts (DENV2-induced thrombocytopenia) [1]: able to maintain the initial normal platelet count
reduction in platelet counts induced by JEV (JEV-infected mice): inhibited
platelet activation in human whole blood stimulated with DENV2+mast cells (human platelets): abolished the significant increase in platelet activation

— US20200352947A1, “USE OF SEROTONERGIC DRUGS TO TREAT VIRUS-INDUCED THROMBOCYTOPENIA” (NATIONAL UNIVERSITY OF SINGAPORE, priority 2017, published 2020)
